Reference: US20020137929A1, “1 - (3-heterocyclylphenyl) isothiourea, -isourea, -guanidine and -amidine herbicidal agents” (Intellectual Property Department, BASF Aktiengesellschaft, priority 1998, published 2002)

Assays:
[1] = test system: ECHORC (Watergrass (Calif.)); assay: Postemergence weed control under flooded paddy conditions; format: in vivo, Echinochloa oryzoides; conditions: postemergence weeds, 3-4 weeks after treatment
How it was run: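 With weeds 3 to 5 cm tall and rice at the 1.5 to 2.5 leaf stage, containers were flooded and water held 1.5 to 3 cm above soil. Compounds in 50/50 v/v aqueous/acetone went into the flood water at about 0.0313 to 0.500 kg/ha a.i. Effects were visually rated 0–9 against controls after three to four weeks in the greenhouse.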

[2] = test system: ABUTH (Velvetleaf); assay: Preemergence herbicidal evaluation; format: in vivo, Abutilon theophrasti; conditions: rated 4-5 weeks after treatment
How it was run: (§1)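 Rating at 4–5 wk post-spray on a 0–9 visual scale vs control. Application: aqueous acetone, ~0.0156–0.500 kg/ha, to soil surface after seeding, preemergence.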

[3] = test system: ZEAMX (Corn, Field); assay: Postemergence herbicidal evaluation; format: in vivo, Zea mays; conditions: postemergence
How it was run: (§2)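 Young plants, roughly two weeks from seeding, receive the active ingredient as a sprayed dispersion (acetone/water 50/50, 0.5% TWEEN 20) at 40 psi. Doses span about 0.0156 to 0.500 kg/ha. A visual score from 0 to 9 compares treated with control plants four to five weeks on.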

[4] = test system: GALAP (Galium); assay: Preemergence herbicidal evaluation; format: in vivo, Galium aparine; conditions: rated 4-5 weeks after treatment
How it was run: as §1

[5] = test system: SETVI (Foxtail, Green); assay: Preemergence herbicidal evaluation; format: in vivo, Setaria viridis; conditions: rated 4-5 weeks after treatment
How it was run: as §1

[6] = test system: AMBEL (Ragweed, Common); assay: Preemergence herbicidal evaluation; format: in vivo, Ambrosia artemisifolia; conditions: rated 4-5 weeks after treatment
How it was run: as §1

[7] = test system: CYPSE (Flatsedge); assay: Preemergence weed control under flooded paddy conditions; format: in vivo, Cyperus serotinus; conditions: rated 3-4 weeks after treatment
How it was run: (§3)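 Using flooded silt loam (water 1.5 to 3 cm deep), seeds sown in the top 0.5 cm were exposed preemergence to compound pipetted into the flood at about 0.0313 to 0.500 kg/ha. Effects were scored 0-9 by eye three to four weeks later.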

[8] = test system: GLXMAW (Soybean, Williams); assay: Preemergence herbicidal evaluation; format: in vivo, Glycine max, (L.) Merr. cv Williams; conditions: rated 4-5 weeks after treatment
How it was run: as §1

[9] = test system: SAGPY (Arrowhead (Pygmaea)); assay: Preemergence weed control under flooded paddy conditions; format: in vivo, Sagittaria pygmaea; conditions: rated 3-4 weeks after treatment
How it was run: as §3

[10] = test system: AMBEL (Ragweed, Common); assay: Postemergence herbicidal evaluation; format: in vivo, Ambrosia artemisifolia; conditions: postemergence
How it was run: as §2

[11] = test system: ECHCG (Barnyardgrass); assay: Preemergence herbicidal evaluation; format: in vivo, Echinochloa crus-galli; conditions: rated 4-5 weeks after treatment
How it was run: as §1

[12] = test system: GLXMAW (Soybean, Williams); assay: Postemergence herbicidal evaluation; format: in vivo, Glycine max, (L.) Merr. cv Williams; conditions: postemergence
How it was run: as §2

[13] = test system: IPOHE (Morningglory, Ivyleaf); assay: Postemergence herbicidal evaluation; format: in vivo, Ipomoea hederacea; conditions: postemergence
How it was run: as §2

[14] = test system: CASOB (Sicklepod); assay: Preemergence herbicidal evaluation; format: in vivo, Cassia obtusifolia; conditions: rated 4-5 weeks after treatment
How it was run: as §1

For CCOC(=O)CN1C(=O)CSC1=Nc1cc(-n2c(=O)cc(C(F)(F)F)n(C)c2=O)c(F)cc1Cl [Compound 8, Ethyl 2-{{2-chloro-5-[3,6-dihydro-3-methyl-2,6-dioxo-4-(trifluoromethyl)-1(2H)pyrimidinyl]-4-fluorophenyl}imino}-4-oxo-3-thiazolidineacetate], the “Herbicidal rating ECHORC” value ([1]; rate 0.0313 kg/ha) was 6.5, the “Herbicidal rating ECHORC” value ([1]; rate 0.0625 kg/ha) was 6.5 and the “Herbicidal rating ECHORC” value ([1]; rate 0.1250 kg/ha) was 7.5. The “Herbicidal rating ECHORC” value ([1]; rate 0.2500 kg/ha) was 8.5, the “ABUTH preemergence herbicidal rating” value ([2]; rate 0.0156 kg/ha) was 7.3 and the “ABUTH preemergence herbicidal rating” value ([2]; rate 0.0313 kg/ha) was 8.4. The “ABUTH preemergence herbicidal rating” value ([2]; rate 0.0625 kg/ha) was 8.7, the “ABUTH preemergence herbicidal rating” value ([2]; rate 0.1250 kg/ha) was 9.0 and the “ABUTH preemergence herbicidal rating” value ([2]; rate 0.2500 kg/ha) was 9.0. For the same compound, the “ABUTH preemergence herbicidal rating” value ([2]; rate 0.5000 kg/ha) was 9.0, the ZEAMX herbicidal rating ([3]; rate 0.0157 kg/ha) was 7.5 and the ZEAMX herbicidal rating ([3]; rate 0.0313 kg/ha) was 7.3. For the same compound, the ZEAMX herbicidal rating ([3]; rate 0.0625 kg/ha) was 7.4, the ZEAMX herbicidal rating ([3]; rate 0.1250 kg/ha) was 7.6 and the “GALAP preemergence herbicidal rating” value ([4]; rate 0.0156 kg/ha) was 0.0. The “GALAP preemergence herbicidal rating” value ([4]; rate 0.0313 kg/ha) was 1.3, the “GALAP preemergence herbicidal rating” value ([4]; rate 0.0625 kg/ha) was 5.5 and the “GALAP preemergence herbicidal rating” value ([4]; rate 0.1250 kg/ha) was 7.5. The “GALAP preemergence herbicidal rating” value ([4]; rate 0.2500 kg/ha) was 9.0, the “GALAP preemergence herbicidal rating” value ([4]; rate 0.5000 kg/ha) was 9.0 and the “SETVI preemergence herbicidal rating” value ([5]; rate 0.0156 kg/ha) was 2.8. For the same compound, the “SETVI preemergence herbicidal rating” value ([5]; rate 0.0313 kg/ha) was 6.1, the “SETVI preemergence herbicidal rating” value ([5]; rate 0.0625 kg/ha) was 8.2 and the “SETVI preemergence herbicidal rating” value ([5]; rate 0.1250 kg/ha) was 9.0. The “SETVI preemergence herbicidal rating” value ([5]; rate 0.2500 kg/ha) was 9.0, the “SETVI preemergence herbicidal rating” value ([5]; rate 0.5000 kg/ha) was 9.0 and the “AMBEL preemergence herbicidal rating” value ([6]; rate 0.0156 kg/ha) was 1.6. The “AMBEL preemergence herbicidal rating” value ([6]; rate 0.0313 kg/ha) was 4.5, the “AMBEL preemergence herbicidal rating” value ([6]; rate 0.0625 kg/ha) was 5.7 and the “AMBEL preemergence herbicidal rating” value ([6]; rate 0.1250 kg/ha) was 8.5. The “AMBEL preemergence herbicidal rating” value ([6]; rate 0.2500 kg/ha) was 8.9, the “AMBEL preemergence herbicidal rating” value ([6]; rate 0.5000 kg/ha) was 9.0 and the “Herbicidal rating CYPSE” value ([7]; 0.0313 kg/ha) was 0.0. The “Herbicidal rating CYPSE” value ([7]; 0.0625 kg/ha) was 0.0, the “Herbicidal rating CYPSE” value ([7]; 0.1250 kg/ha) was 0.0 and the “Herbicidal rating CYPSE” value ([7]; 0.2500 kg/ha) was 0.0. For the same compound, the “GLXMAW preemergence herbicidal rating” value ([8]; rate 0.0156 kg/ha) was 0.2, the “GLXMAW preemergence herbicidal rating” value ([8]; rate 0.0313 kg/ha) was 1.1 and the “GLXMAW preemergence herbicidal rating” value ([8]; rate 0.0625 kg/ha) was 3.2. The “GLXMAW preemergence herbicidal rating” value ([8]; rate 0.1250 kg/ha) was 5.9, the “GLXMAW preemergence herbicidal rating” value ([8]; rate 0.2500 kg/ha) was 7.9 and the “GLXMAW preemergence herbicidal rating” value ([8]; rate 0.5000 kg/ha) was 8.8. For the same compound, the “Herbicidal rating SAGPY” value ([9]; 0.0313 kg/ha) was 0.0, the “Herbicidal rating SAGPY” value ([9]; 0.0625 kg/ha) was 0.0 and the “Herbicidal rating SAGPY” value ([9]; 0.1250 kg/ha) was 0.0. For the same compound, the “Herbicidal rating SAGPY” value ([9]; 0.2500 kg/ha) was 0.0, the AMBEL herbicidal rating ([10]; rate 0.0157 kg/ha) was 9.0 and the AMBEL herbicidal rating ([10]; rate 0.0313 kg/ha) was 7.8. For the same compound, the AMBEL herbicidal rating ([10]; rate 0.0625 kg/ha) was 8.3, the AMBEL herbicidal rating ([10]; rate 0.1250 kg/ha) was 8.6 and the “ECHCG preemergence herbicidal rating” value ([11]; rate 0.0156 kg/ha) was 0.4. For the same compound, the “ECHCG preemergence herbicidal rating” value ([11]; rate 0.0313 kg/ha) was 2.2, the “ECHCG preemergence herbicidal rating” value ([11]; rate 0.0625 kg/ha) was 4.4 and the “ECHCG preemergence herbicidal rating” value ([11]; rate 0.1250 kg/ha) was 7.4. For the same compound, the “ECHCG preemergence herbicidal rating” value ([11]; rate 0.2500 kg/ha) was 8.9, the “ECHCG preemergence herbicidal rating” value ([11]; rate 0.5000 kg/ha) was 9.0 and the GLXMAW herbicidal rating ([12]; rate 0.0157 kg/ha) was 7.5. For the same compound, the GLXMAW herbicidal rating ([12]; rate 0.0313 kg/ha) was 7.6, the GLXMAW herbicidal rating ([12]; rate 0.0625 kg/ha) was 7.9 and the GLXMAW herbicidal rating ([12]; rate 0.1250 kg/ha) was 8.4. The IPOHE herbicidal rating ([13]; rate 0.0157 kg/ha) was 9.0, the IPOHE herbicidal rating ([13]; rate 0.0313 kg/ha) was 9.0 and the IPOHE herbicidal rating ([13]; rate 0.0625 kg/ha) was 9.0. For the same compound, the IPOHE herbicidal rating ([13]; rate 0.1250 kg/ha) was 9.0, the “CASOB preemergence herbicidal rating” value ([14]; rate 0.0156 kg/ha) was 0.0 and the “CASOB preemergence herbicidal rating” value ([14]; rate 0.0313 kg/ha) was 0.1. For the same compound, the “CASOB preemergence herbicidal rating” value ([14]; rate 0.0625 kg/ha) was 1.2, the “CASOB preemergence herbicidal rating” value ([14]; rate 0.1250 kg/ha) was 1.7 and the “CASOB preemergence herbicidal rating” value ([14]; rate 0.2500 kg/ha) was 3.3. The “CASOB preemergence herbicidal rating” value ([14]; rate 0.5000 kg/ha) was 3.8.
